In patent US9249129B2, “Morpholino substituted urea derivatives as mTOR inhibitors” (CELLZOME LIMITED, priority 2010, dated 2016):

What was measured:
Assay in all cases: kinobeads assay with mass spectrometry detection of kinases (kinase selectivity profile)
Type in all cases: binding
kinases (kinome) [1] = molecular target: T1, kinases (kinome) (Homo sapiens, UniProt P42684); conditions: ARG (TK), IPI00329488
T1 construct: determined in kinobeads assays with mass spectrometry detection of kinases as described previously; endogenous in cells; host or cells: cell lysate
T1 sequence (P42684 whole entry): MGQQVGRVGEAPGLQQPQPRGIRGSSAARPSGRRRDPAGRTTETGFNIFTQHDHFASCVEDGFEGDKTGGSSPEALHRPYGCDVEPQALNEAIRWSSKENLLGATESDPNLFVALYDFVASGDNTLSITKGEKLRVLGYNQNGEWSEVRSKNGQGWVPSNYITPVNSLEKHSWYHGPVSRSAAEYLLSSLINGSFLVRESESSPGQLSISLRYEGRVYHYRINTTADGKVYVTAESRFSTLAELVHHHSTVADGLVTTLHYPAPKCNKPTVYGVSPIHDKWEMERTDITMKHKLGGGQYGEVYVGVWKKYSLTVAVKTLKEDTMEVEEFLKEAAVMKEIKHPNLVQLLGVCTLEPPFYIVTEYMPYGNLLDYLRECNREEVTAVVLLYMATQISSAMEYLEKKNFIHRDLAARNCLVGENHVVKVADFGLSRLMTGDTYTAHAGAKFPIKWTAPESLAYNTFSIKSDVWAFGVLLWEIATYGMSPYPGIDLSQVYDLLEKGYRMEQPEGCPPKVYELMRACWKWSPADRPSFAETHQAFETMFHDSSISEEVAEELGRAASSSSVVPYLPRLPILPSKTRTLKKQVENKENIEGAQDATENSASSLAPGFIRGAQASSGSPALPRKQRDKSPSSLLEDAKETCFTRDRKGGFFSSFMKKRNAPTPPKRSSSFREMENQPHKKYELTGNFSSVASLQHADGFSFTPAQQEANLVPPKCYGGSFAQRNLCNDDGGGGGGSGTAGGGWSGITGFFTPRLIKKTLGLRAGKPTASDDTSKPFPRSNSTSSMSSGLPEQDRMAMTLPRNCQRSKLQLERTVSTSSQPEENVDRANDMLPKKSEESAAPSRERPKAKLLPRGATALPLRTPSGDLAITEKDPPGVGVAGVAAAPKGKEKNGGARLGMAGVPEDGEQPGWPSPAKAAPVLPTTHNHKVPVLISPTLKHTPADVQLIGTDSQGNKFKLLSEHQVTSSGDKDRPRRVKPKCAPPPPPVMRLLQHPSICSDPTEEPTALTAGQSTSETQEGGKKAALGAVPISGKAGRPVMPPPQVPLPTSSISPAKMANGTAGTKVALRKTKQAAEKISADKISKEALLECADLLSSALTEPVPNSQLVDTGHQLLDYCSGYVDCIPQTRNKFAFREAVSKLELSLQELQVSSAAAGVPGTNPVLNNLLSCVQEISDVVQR
Source text: (§1) The protein kinase complement of the human genome (the kinome) was described previously (Manning et al., 2002. Science 298(5600):1912-1934). Sequence accession numbers are defined by the International Protein Index (IPI) (Kersey et al., 2004. Proteomics 4(7):1985-1988).

kinases (kinome) [2] = molecular target: T2, kinases (kinome) (Homo sapiens, UniProt Q00534); conditions: CDK6 (CMGC), IPI00023529
T2 construct: determined in kinobeads assays with mass spectrometry detection of kinases as described previously; endogenous in cells; host or cells: cell lysate
T2 sequence (Q00534 whole entry): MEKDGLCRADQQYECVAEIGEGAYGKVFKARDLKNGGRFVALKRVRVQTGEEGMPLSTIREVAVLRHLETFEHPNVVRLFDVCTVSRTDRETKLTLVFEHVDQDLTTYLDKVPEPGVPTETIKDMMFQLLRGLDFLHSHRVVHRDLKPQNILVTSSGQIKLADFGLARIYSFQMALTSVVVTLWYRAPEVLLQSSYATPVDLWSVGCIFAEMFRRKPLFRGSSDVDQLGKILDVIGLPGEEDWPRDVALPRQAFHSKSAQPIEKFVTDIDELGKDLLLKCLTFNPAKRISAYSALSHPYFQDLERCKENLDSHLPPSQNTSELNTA
Source text: as §1

kinases (kinome) [3] = molecular target: T3, kinases (kinome) (Homo sapiens, UniProt P05771); conditions: PKCb (AGC), IPI00219628
T3 construct: determined in kinobeads assays with mass spectrometry detection of kinases as described previously; endogenous in cells; host or cells: cell lysate
T3 sequence (P05771 whole entry): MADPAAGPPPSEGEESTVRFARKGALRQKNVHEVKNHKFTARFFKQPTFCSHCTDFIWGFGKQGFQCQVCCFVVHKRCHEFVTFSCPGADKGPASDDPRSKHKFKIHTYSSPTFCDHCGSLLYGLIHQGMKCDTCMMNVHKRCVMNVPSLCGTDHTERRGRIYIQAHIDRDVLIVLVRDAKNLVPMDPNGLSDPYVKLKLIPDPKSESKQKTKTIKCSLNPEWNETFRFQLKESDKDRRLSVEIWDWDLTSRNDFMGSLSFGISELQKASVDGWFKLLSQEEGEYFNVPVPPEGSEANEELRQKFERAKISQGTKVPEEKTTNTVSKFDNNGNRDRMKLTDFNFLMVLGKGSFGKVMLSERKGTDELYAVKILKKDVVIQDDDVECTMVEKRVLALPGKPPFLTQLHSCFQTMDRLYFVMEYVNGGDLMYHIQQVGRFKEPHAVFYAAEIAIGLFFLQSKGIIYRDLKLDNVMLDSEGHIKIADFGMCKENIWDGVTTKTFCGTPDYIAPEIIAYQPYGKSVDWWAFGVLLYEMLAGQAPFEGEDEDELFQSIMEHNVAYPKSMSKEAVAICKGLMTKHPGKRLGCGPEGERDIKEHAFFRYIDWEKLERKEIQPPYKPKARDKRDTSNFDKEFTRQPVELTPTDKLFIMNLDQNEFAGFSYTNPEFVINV
Source text: as §1

kinases (kinome) [4] = molecular target: T4, kinases (kinome) (Homo sapiens, UniProt Q13557); conditions: CaMK2d (CAMK), IPI00828081
T4 construct: determined in kinobeads assays with mass spectrometry detection of kinases as described previously; endogenous in cells; host or cells: cell lysate
T4 sequence (Q13557 whole entry): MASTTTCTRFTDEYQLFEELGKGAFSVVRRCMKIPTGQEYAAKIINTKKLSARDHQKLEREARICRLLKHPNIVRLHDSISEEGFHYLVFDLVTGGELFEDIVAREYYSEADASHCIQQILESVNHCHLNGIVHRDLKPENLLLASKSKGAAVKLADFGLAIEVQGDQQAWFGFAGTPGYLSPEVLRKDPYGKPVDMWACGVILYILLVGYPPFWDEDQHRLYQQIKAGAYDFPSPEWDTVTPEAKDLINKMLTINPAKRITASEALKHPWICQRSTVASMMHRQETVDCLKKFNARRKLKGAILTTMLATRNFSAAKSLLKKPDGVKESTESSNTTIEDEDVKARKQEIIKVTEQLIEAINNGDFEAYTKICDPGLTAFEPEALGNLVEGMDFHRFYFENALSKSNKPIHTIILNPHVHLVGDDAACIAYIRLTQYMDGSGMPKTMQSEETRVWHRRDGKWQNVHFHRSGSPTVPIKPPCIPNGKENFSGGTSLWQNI
Source text: as §1

kinases (kinome) [5] = molecular target: T5, kinases (kinome) (Homo sapiens, UniProt Q96GD4); conditions: AurB (Other), IPI00796914
T5 construct: determined in kinobeads assays with mass spectrometry detection of kinases as described previously; endogenous in cells; host or cells: cell lysate
Source text: as §1

kinases (kinome) [6] = molecular target: T6, kinases (kinome) (Homo sapiens, UniProt Q7KZI7); conditions: MARK2 (CAMK), IPI00555838
T6 construct: determined in kinobeads assays with mass spectrometry detection of kinases as described previously; endogenous in cells; host or cells: cell lysate
T6 sequence (Q7KZI7 whole entry): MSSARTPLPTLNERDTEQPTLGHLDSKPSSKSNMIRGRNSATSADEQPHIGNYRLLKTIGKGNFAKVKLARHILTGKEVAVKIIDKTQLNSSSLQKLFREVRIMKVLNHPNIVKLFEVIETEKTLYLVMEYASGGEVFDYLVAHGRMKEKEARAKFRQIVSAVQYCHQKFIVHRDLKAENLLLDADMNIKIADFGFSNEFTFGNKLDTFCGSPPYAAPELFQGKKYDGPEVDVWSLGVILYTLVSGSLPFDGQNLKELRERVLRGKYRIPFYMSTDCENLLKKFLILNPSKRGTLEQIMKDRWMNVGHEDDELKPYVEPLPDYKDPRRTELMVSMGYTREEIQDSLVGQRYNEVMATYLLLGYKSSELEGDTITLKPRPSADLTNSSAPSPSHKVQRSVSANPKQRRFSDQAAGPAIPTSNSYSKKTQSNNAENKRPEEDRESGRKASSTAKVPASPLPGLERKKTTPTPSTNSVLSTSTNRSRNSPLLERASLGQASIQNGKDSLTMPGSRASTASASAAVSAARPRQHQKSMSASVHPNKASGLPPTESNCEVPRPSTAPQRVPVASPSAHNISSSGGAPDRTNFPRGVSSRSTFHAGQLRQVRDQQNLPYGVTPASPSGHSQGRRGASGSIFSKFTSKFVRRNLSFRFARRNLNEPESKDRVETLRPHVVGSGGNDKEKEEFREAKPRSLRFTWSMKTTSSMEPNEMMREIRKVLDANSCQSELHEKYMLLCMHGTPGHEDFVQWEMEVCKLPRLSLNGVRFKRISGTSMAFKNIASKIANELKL
Source text: as §1

kinases (kinome) [7] = molecular target: T7, kinases (kinome) (Homo sapiens, UniProt Q08345); conditions: DDR1 (TK), IPI00657861
T7 construct: determined in kinobeads assays with mass spectrometry detection of kinases as described previously; endogenous in cells; host or cells: cell lysate
T7 sequence (Q08345 19-913): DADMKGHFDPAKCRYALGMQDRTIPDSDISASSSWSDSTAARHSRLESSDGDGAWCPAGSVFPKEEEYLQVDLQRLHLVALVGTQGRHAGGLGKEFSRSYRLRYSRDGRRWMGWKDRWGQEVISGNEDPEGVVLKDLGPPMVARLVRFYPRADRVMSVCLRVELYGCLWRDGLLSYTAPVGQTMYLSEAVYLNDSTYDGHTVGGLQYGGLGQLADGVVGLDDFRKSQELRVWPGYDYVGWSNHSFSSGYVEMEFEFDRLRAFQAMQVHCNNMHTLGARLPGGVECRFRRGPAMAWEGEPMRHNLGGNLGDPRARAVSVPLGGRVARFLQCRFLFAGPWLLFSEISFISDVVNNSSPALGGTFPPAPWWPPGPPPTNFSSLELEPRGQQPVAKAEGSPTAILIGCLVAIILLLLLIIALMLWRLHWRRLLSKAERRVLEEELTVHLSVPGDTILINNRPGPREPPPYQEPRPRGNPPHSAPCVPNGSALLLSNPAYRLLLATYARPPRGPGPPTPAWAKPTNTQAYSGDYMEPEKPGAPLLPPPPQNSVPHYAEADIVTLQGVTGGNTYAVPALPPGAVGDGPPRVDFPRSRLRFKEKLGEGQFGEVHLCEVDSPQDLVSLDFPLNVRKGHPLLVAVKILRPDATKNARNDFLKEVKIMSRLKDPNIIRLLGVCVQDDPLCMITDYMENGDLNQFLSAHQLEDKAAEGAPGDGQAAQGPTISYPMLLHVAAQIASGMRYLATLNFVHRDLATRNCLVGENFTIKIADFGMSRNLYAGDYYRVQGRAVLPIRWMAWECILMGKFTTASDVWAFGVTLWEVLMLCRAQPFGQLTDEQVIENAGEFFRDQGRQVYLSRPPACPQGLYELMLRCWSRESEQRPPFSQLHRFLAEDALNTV
Source text: as §1

kinases (kinome) [8] = molecular target: T8, kinases (kinome) (Homo sapiens, UniProt Q8TD19); conditions: NEK9 (Other), IPI00301609
T8 construct: determined in kinobeads assays with mass spectrometry detection of kinases as described previously; endogenous in cells; host or cells: cell lysate
T8 sequence (Q8TD19 1-979): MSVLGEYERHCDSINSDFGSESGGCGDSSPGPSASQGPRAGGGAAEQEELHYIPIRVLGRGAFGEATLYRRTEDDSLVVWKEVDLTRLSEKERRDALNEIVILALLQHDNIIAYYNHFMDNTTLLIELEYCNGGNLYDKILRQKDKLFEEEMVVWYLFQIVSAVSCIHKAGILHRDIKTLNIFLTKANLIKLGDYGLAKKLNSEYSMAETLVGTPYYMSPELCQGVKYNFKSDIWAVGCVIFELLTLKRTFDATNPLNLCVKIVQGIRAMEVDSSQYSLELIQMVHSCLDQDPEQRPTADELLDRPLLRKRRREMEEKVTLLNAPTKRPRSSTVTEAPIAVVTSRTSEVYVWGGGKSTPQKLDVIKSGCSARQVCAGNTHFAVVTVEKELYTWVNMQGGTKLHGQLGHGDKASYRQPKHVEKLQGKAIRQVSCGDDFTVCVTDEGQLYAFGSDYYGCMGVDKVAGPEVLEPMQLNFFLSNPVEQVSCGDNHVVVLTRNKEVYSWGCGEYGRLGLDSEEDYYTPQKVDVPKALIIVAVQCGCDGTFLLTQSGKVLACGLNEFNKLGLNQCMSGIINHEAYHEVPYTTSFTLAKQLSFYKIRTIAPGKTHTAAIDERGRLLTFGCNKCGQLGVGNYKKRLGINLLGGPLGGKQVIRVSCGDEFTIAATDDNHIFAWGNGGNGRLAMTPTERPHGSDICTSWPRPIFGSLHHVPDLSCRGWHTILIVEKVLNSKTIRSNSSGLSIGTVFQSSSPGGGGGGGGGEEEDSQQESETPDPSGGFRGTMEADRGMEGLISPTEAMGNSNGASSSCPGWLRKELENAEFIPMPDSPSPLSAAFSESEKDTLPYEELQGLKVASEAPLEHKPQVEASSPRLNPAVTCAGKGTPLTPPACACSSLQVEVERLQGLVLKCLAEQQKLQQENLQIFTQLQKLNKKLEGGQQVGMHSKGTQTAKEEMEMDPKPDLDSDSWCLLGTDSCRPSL
Source text: as §1

kinases (kinome) [9] = molecular target: T9, kinases (kinome) (Homo sapiens, UniProt P06241); conditions: FYN (TK), IPI00219012
T9 construct: determined in kinobeads assays with mass spectrometry detection of kinases as described previously; endogenous in cells; host or cells: cell lysate
Source text: as §1

kinases (kinome) [10] = molecular target: T10, kinases (kinome) (Homo sapiens, UniProt Q96S53); conditions: TESK2 (TKL), IPI00102677
T10 construct: determined in kinobeads assays with mass spectrometry detection of kinases as described previously; endogenous in cells; host or cells: cell lysate
T10 sequence (Q96S53 whole entry): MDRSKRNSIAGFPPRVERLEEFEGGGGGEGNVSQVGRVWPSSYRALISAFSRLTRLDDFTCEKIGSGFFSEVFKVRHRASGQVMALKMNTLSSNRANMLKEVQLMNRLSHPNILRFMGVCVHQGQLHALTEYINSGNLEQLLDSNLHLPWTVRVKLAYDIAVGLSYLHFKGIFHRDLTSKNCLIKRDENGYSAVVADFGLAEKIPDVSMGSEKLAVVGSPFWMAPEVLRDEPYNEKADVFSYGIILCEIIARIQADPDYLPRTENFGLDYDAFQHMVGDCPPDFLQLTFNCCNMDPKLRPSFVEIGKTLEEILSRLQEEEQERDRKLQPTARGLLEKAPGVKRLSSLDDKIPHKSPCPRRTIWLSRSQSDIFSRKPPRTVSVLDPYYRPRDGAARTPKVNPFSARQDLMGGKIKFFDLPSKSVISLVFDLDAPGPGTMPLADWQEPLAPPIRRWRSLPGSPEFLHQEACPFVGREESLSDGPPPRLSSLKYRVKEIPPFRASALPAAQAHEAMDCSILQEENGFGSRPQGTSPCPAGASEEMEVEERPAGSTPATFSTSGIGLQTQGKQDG
Source text: as §1

kinases (kinome) [11] = molecular target: T11, kinases (kinome) (Homo sapiens, UniProt Q12851); conditions: GCK (STE), IPI00149094
T11 construct: determined in kinobeads assays with mass spectrometry detection of kinases as described previously; endogenous in cells; host or cells: cell lysate
T11 sequence (Q12851 1-820): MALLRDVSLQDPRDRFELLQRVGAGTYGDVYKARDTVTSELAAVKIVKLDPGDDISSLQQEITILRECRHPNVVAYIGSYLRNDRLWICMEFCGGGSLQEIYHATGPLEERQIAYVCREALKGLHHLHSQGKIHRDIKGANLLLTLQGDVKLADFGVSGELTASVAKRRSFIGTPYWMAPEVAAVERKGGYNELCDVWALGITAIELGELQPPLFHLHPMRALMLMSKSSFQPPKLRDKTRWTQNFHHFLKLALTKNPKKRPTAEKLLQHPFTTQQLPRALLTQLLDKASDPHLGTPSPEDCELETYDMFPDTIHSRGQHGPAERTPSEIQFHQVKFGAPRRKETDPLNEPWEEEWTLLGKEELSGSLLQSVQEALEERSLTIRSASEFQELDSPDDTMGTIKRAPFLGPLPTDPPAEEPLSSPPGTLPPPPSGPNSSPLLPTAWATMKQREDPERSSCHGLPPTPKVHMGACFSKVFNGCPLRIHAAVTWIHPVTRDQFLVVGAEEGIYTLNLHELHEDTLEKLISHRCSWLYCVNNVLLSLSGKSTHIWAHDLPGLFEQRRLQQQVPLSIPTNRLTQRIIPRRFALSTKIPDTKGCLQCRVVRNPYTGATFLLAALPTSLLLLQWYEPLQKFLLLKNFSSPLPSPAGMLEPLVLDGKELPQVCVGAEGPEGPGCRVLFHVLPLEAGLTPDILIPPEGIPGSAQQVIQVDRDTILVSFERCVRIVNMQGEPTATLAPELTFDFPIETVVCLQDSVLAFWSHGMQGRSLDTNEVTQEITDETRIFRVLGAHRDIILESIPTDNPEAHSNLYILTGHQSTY
Source text: as §1

Measured: IC50

C[C@H]1COCCN1c1nc(-c2ccc(NC(=O)NC3CC3)cc2)cc(-c2ccccc2S(C)(=O)=O)n1 [Example 4, (S)-1-cyclopropyl-3-(4-(2-(3-methylmorpholino)-6-(2-(methylsulfonyl)phenyl)pyrimidin-4-yl)phenyl)urea]
> 10 µM: all assays above

C[C@H]1COCCN1c1cc(-c2ccccc2S(C)(=O)=O)nc(-c2ccc(NC(=O)NC3CC3)cc2)n1 [Example 6, (S)-1-cyclopropyl-3-(4-(4-(3-methylmorpholino)-6-(2-(methylsulfonyl)phenyl)pyrimidin-2-yl)phenyl)urea]
> 10 µM: all assays above

CCNC(=O)Nc1ccc(-c2cc(-c3ccccc3C#N)nc(N3CCOC[C@@H]3C)n2)cc1 [Example 8, (S)-1-(4-(6-(2-cyanophenyl)-2-(3-methylmorpholino)pyrimidin-4-yl)phenyl)-3-ethylurea]
not listed: kinases (kinome) [2] | kinases (kinome) [7]
> 10 µM: all other assays above

C[C@H]1COCCN1c1nc(-c2ccc(NC(=O)NC3CC3)cc2)cc(-c2cc(F)ccc2S(C)(=O)=O)n1 [Example 40, (S)-1-cyclopropyl-3-(4-(6-(5-fluoro-2-(methylsulfonyl)phenyl)-2-(3-methylmorpholino)pyrimidin-4-yl)phenyl)urea]
> 10 µM: all assays above

C[C@H]1COCCN1c1cc(-c2ccccn2)nc(-c2ccc(NC(=O)NCCO)cc2)n1 [Example 43, (S)-1-(2-hydroxyethyl)-3-(4-(4-(3-methylmorpholino)-6-(pyridin-2-yl)pyrimidin-2-yl)phenyl)urea]
> 10 µM: all assays above

C[C@H]1COCCN1c1nc(-c2ccc(NC(=O)NC3CC3)cc2)cc(-c2cccnc2S(C)(=O)=O)n1 [Example 46, (S)-1-cyclopropyl-3-(4-(2-(3-methylmorpholino)-6-(2-(methylsulfonyl)pyridin-3-yl)pyrimidin-4-yl)phenyl)urea]
> 10 µM: all assays above

C[C@H]1COCCN1c1nc(-c2ccc(NC(=O)N[C@H]3CCC[C@@H]3O)cc2)cc(-c2cc(F)ccc2S(C)(=O)=O)n1 [Example 76, 1-(4-(6-(5-fluoro-2-(methylsulfonyl)phenyl)-2-((S)-3-methylmorpholino)pyrimidin-4-yl)phenyl)-3-((1S,2S)-2-hydroxycyclopentyl)urea]
> 10 µM: all assays above
